In the NIST ThermoML archive (doi:10.1021/acs.jced.8b00755):
Values joined by “and” are separate entries in the source; they are usually repeats but may differ in a detail not shown here. Equal values may be shown once.

Assays:
[1] = xn = mol fraction of the nth substance listed; conditions: 298.15 K, 101.3 kPa, Liquid, Vibrating tube method
[2] = refractive index (Na D-line) (dimensionless); xn = mol fraction of the nth substance listed; conditions: 298.15 K, 101.3 kPa, Liquid, Standard Abbe refractometry
[3] = relative permittivity at zero frequency (dimensionless); xn = mol fraction of the nth substance listed; conditions: 298.15 K, 101.3 kPa, Liquid, Coaxial cylinder capacitor
[4] = refractive index (Na D-line) (dimensionless); conditions: 298.15 K; 101.3 kPa; Liquid; Standard Abbe refractometry
[5] = relative permittivity at zero frequency (dimensionless); conditions: 298.15 K; 101.3 kPa; Liquid; Coaxial cylinder capacitor
[6] = 298.15 K; 101.3 kPa; Liquid; Vibrating tube method

CCCCCCCCCCO [decan-1-ol] + O=C1CCCCC1
x1 = 1
Conditions | mass density [kg/m3] | refractive index | relative permittivity at zero frequency
[1] | 826.71 | – | –
[2] | – | 1.4352 | –
[3] | – | – | 7.74

OC1CCCCC1 [cyclohexanol] + C1CCCCC1
Conditions | refractive index, [2] | relative permittivity at zero frequency, [3]
x1 = 0.02 | 1.424 | 2.084
x1 = 0.04 | 1.4245 | 2.151
x1 = 0.05 | 1.4247 | 2.184
x1 = 0.06 | 1.425 | 2.219
x1 = 0.08 | 1.4255 | 2.285
x1 = 0.1 | 1.426 | 2.354

O=C1CCCC1 [cyclopentanone] + C1CCCCC1
Conditions | refractive index, [2] | relative permittivity at zero frequency, [3]
x1 = 0.1 | 1.4236 | 2.78
x1 = 0.2 | 1.4239 | 3.61
x1 = 0.3 | 1.4244 | 4.51
x1 = 0.4 | 1.4252 | 5.51
x1 = 0.5 | 1.4262 | 6.6
x1 = 0.6 | 1.4274 | 7.78
x1 = 0.7 | 1.4289 | 9.06
x1 = 0.8 | 1.4306 | 10.45
x1 = 0.9 | 1.4325 | 11.94
x1 = 1 | 1.4347 | 13.52

OC1CCCCC1 [cyclohexanol] + O=C1CCCC1
x1 = 1
Conditions | refractive index | relative permittivity at zero frequency
[2] | 1.4646 | –
[3] | – | 15.71

CCO [ethanol] + O=C1CCCCC1
x1 = 1
Conditions | mass density [kg/m3] | refractive index | relative permittivity at zero frequency
[1] | 785.26 | – | –
[2] | – | 1.3594 | –
[3] | – | – | 24.37

O=C1CCCCC1 [cyclohexanone] + CCCCCCCCCCO
Conditions | mass density, [1] [kg/m3] | refractive index, [2] | relative permittivity at zero frequency, [3]
x2 = 0 | 942.47 | 1.4485 | 15.81
x2 = 0.1 | 922.31 | 1.4458 | 14.59
x2 = 0.2 | 904.8 | 1.4436 | 13.46
x2 = 0.3 | 889.41 | 1.4416 | 12.41
x2 = 0.4 | 875.85 | 1.4399 | 11.44
x2 = 0.5 | 863.79 | 1.4385 | 10.57
x2 = 0.6 | 853.13 | 1.4374 | 9.81
x2 = 0.7 | 843.78 | 1.4364 | 9.15
x2 = 0.8 | 836.26 | 1.4358 | 8.59
x2 = 0.9 | 830.72 | 1.4354 | 8.12

C1CCCCC1 [cyclohexane] + OC1CCCCC1
x2 = 0
Conditions | refractive index | relative permittivity at zero frequency
[2] | 1.4235 | –
[3] | – | 2.021

O=C1CCCC1 [cyclopentanone]
Conditions | refractive index | relative permittivity at zero frequency
[4] | 1.4347 | –
[5] | – | 13.52

CCCCCCO [hexan-1-ol]
Conditions | mass density [kg/m3] | refractive index | relative permittivity at zero frequency
[4] | – | 1.4161 | –
[5] | – | – | 13.06
[6] | 815.99 | – | –

O=C1CCCCC1 [cyclohexanone] + CCCCO
Conditions | mass density, [1] [kg/m3] | refractive index, [2] | relative permittivity at zero frequency, [3]
x2 = 0 | 942.47 | 1.4485 | 15.81
x2 = 0.1 | 932.83 | 1.4441 | 15.3
x2 = 0.2 | 922.35 | 1.4396 | 14.95
x2 = 0.3 | 910.57 | 1.4347 | 14.71
x2 = 0.4 | 897.77 | 1.4301 | 14.62
x2 = 0.5 | 883.98 | 1.4253 | 14.71
x2 = 0.6 | 869.51 | 1.4204 | 14.97
x2 = 0.7 | 854.54 | 1.4147 | 15.39
x2 = 0.8 | 838.96 | 1.4086 | 15.97
x2 = 0.9 | 822.78 | 1.4035 | 16.68

OC1CCCCC1 [cyclohexanol]
Conditions | refractive index | relative permittivity at zero frequency
[4] | 1.4646 | –
[5] | – | 15.71

CCCCO [butan-1-ol]
Conditions | mass density [kg/m3] | refractive index | relative permittivity at zero frequency
[4] | – | 1.3971 | –
[5] | – | – | 17.49
[6] | 805.92 | – | –

O=C1CCCCC1 [cyclohexanone] + CCO
Conditions | mass density, [1] [kg/m3] | refractive index, [2] | relative permittivity at zero frequency, [3]
x2 = 0 | 942.47 | 1.4485 | 15.81
x2 = 0.1 | 938.01 | 1.4449 | 15.84
x2 = 0.2 | 930.92 | 1.4401 | 15.98
x2 = 0.3 | 921.48 | 1.4339 | 16.36
x2 = 0.4 | 910.02 | 1.4268 | 16.97
x2 = 0.5 | 896.25 | 1.4187 | 17.76
x2 = 0.6 | 879.92 | 1.4094 | 18.72
x2 = 0.7 | 860.95 | 1.3988 | 19.88
x2 = 0.8 | 839.21 | 1.3869 | 21.19
x2 = 0.9 | 814.29 | 1.3739 | 22.68

C1CCCCC1 [cyclohexane] + O=C1CCCC1
x2 = 0
Conditions | refractive index | relative permittivity at zero frequency
[2] | 1.4235 | –
[3] | – | 2.02

CCCCCCCCO [octan-1-ol] + O=C1CCCCC1
x1 = 1
Conditions | mass density [kg/m3] | refractive index | relative permittivity at zero frequency
[1] | 821.98 | – | –
[2] | – | 1.4276 | –
[3] | – | – | 9.85

O=C1CCCCC1 [cyclohexanone] + CCCCCCCCO
Conditions | mass density, [1] [kg/m3] | refractive index, [2] | relative permittivity at zero frequency, [3]
x2 = 0 | 942.47 | 1.4485 | 15.81
x2 = 0.1 | 924.71 | 1.4456 | 14.72
x2 = 0.2 | 908.6 | 1.443 | 13.74
x2 = 0.3 | 893.85 | 1.4403 | 12.87
x2 = 0.4 | 880.35 | 1.438 | 12.12
x2 = 0.5 | 867.97 | 1.4358 | 11.47
x2 = 0.6 | 856.69 | 1.4338 | 10.93
x2 = 0.7 | 846.41 | 1.4319 | 10.5
x2 = 0.8 | 837.29 | 1.4303 | 10.18
x2 = 0.9 | 829.11 | 1.4289 | 9.97

O=C1CCCCC1 [cyclohexanone] + OC1CCCCC1
x2 = 0
Conditions | refractive index | relative permittivity at zero frequency
[2] | 1.4485 | –
[3] | – | 15.81

O=C1CCCCC1 [cyclohexanone] + CCCCCCO
Conditions | mass density, [1] [kg/m3] | refractive index, [2] | relative permittivity at zero frequency, [3]
x2 = 0 | 942.47 | 1.4485 | 15.81
x2 = 0.1 | 927.39 | 1.4444 | 14.93
x2 = 0.2 | 912.83 | 1.4405 | 14.2
x2 = 0.3 | 898.77 | 1.4367 | 13.59
x2 = 0.4 | 885.19 | 1.4332 | 13.13
x2 = 0.5 | 872.11 | 1.4299 | 12.79
x2 = 0.6 | 859.53 | 1.4267 | 12.58
x2 = 0.7 | 847.55 | 1.4237 | 12.5
x2 = 0.8 | 836.36 | 1.4209 | 12.57
x2 = 0.9 | 825.91 | 1.4184 | 12.76

O=C1CCCC1 [cyclopentanone] + OC1CCCCC1
Conditions | refractive index, [2] | relative permittivity at zero frequency, [3]
x2 = 0 | 1.4347 | 13.52
x2 = 0.1 | 1.4372 | 13.1
x2 = 0.2 | 1.4397 | 12.78
x2 = 0.3 | 1.4423 | 12.55
x2 = 0.4 | 1.445 | 12.42
x2 = 0.5 | 1.4479 | 12.43
x2 = 0.6 | 1.4509 | 12.61
x2 = 0.7 | 1.4541 | 12.99
x2 = 0.8 | 1.4575 | 13.59
x2 = 0.9 | 1.461 | 14.48

CCCCCCO [hexan-1-ol] + O=C1CCCCC1
x1 = 1
Conditions | mass density [kg/m3] | refractive index | relative permittivity at zero frequency
[1] | 815.99 | – | –
[2] | – | 1.4161 | –
[3] | – | – | 13.06

C1CCCCC1 [cyclohexane] + O=C1CCCCC1
x2 = 0
Conditions | refractive index | relative permittivity at zero frequency
[2] | 1.4235 | –
[3] | – | 2.021 and 2.02

CCO [ethanol]
Conditions | mass density [kg/m3] | refractive index | relative permittivity at zero frequency
[4] | – | 1.3594 | –
[5] | – | – | 24.37
[6] | 785.26 | – | –

OC1CCCCC1 [cyclohexanol] + O=C1CCCCC1
Conditions | refractive index, [2] | relative permittivity at zero frequency, [3]
x1 = 0.1 | 1.4498 | 15.16
x1 = 0.2 | 1.4512 | 14.63
x1 = 0.3 | 1.4527 | 14.24
x1 = 0.4 | 1.4542 | 13.99
x1 = 0.5 | 1.4558 | 13.91
x1 = 0.6 | 1.4574 | 13.98
x1 = 0.7 | 1.4591 | 14.2
x1 = 0.8 | 1.4608 | 14.57
x1 = 0.9 | 1.4626 | 15.08
x1 = 1 | 1.4646 | 15.71

C1CCCCC1 [cyclohexane]
Conditions | refractive index | relative permittivity at zero frequency
[4] | 1.4235 | –
[5] | – | 2.021 and 2.02

O=C1CCCCC1 [cyclohexanone] + C1CCCCC1
Conditions | refractive index, [2] | relative permittivity at zero frequency, [3]
x1 = 0.02 | 1.4239 | 2.189
x1 = 0.04 | 1.4243 | 2.364
x1 = 0.05 | 1.4245 | 2.467
x1 = 0.06 | 1.4247 | 2.563
x1 = 0.08 | 1.4251 | 2.746
x1 = 0.1 | 1.4255 and 1.4254 | 2.932 and 3
x1 = 0.2 | 1.4276 | 4.12
x1 = 0.3 | 1.4298 | 5.35
x1 = 0.4 | 1.4322 | 6.66
x1 = 0.5 | 1.4347 | 8.03
x1 = 0.6 | 1.4372 | 9.45
x1 = 0.7 | 1.4399 | 10.94
x1 = 0.8 | 1.4427 | 12.49
x1 = 0.9 | 1.4456 | 14.11
x1 = 1 | 1.4485 | 15.81

CCCCCCCCCCO [decan-1-ol]
Conditions | mass density [kg/m3] | refractive index | relative permittivity at zero frequency
[4] | – | 1.4352 | –
[5] | – | – | 7.74
[6] | 826.71 | – | –

CCCCCCCCO [octan-1-ol]
Conditions | mass density [kg/m3] | refractive index | relative permittivity at zero frequency
[4] | – | 1.4276 | –
[5] | – | – | 9.85
[6] | 821.98 | – | –

O=C1CCCCC1 [cyclohexanone]
Conditions | mass density [kg/m3] | refractive index | relative permittivity at zero frequency
[4] | – | 1.4485 | –
[5] | – | – | 15.81
[6] | 942.47 | – | –

CCCCO [butan-1-ol] + O=C1CCCCC1
x1 = 1
Conditions | mass density [kg/m3] | refractive index | relative permittivity at zero frequency
[1] | 805.92 | – | –
[2] | – | 1.3971 | –
[3] | – | – | 17.49
